Experimental data published in US20040265847A1, “Method for treating Alzheimer's disease” (priority 1991, published 2004).

Experiments:
[1] = test system: PC12 cells; test: Effect of extracellular zinc on cultured PC12 cells (APP by Western blot); assay type: cell-based; conditions: 48 hr
Experimental: 10^6 PC12 cells were plated for 24 hr in the presence of Dulbecco's modified Eagle's medium (DMEM, N2) supplemented with 8% fetal calf serum (FCS). The medium was then removed and replaced with DMEM±2 to 50 μM ZnCl2 or another salt, and no FCS. Cells and media were harvested 48 hr later and aliquots of media, cell cytosol and membrane (following lysis and ultracentrifugation) were assayed for APP by Western blotting with mAb 22C11.

[2] = test system: human brain 130/110 kDa APP; test: ^65Zn binding to human brain 130/110 kDa APP (time course, competition, Scatchard)
Description: FIG. 4 is a graphical representation showing a time course analysis of ^65Zn binding to human brain 130/110 kDa APP. Amyloid protein precursor (APP) was purified according to the method in Moir et al. (1992). The preparation of purified 130 and 110 kDa APP was derived from human brain membrane extracts and contained the full-length precursor with carboxyl terminus intact but lacked the 17 residue signal peptide. The 130 and 110 kDa proteins were apparent in equal ratios on silver staining following polyacrylamide gel electrophoresis and were the only bands visible. The identity of these two proteins was confirmed by Western blots with monoclonal antibody 22C11 (which recognises an amino terminal epitope on APP), and by amino terminal sequencing. The protein concentration of the APP preparation was determined by amino acid analysis. Aliquots of APP (90 ng, =1.1 pmole, assuming the average amino acid formula weight of APP is =80 kDa) were incubated at 20° C. for the times indicated. Incubations (50 μl) were performed in 150 mM NaCl, 50 mM Tris-Hcl, pH 7.4 in the presence of 10^6 cpm of ^65Zn (175 nM). The incubation solution was then applied to a 1.1 ml bed volume Sephadex G25 (Pharmacia, Uppsala, Sweden) column pre-equilibrated with 150 mM NaCl, 50 mM Tris-HCl, pH 7.4 and allowed to settle before being desalted with 645 μl of the Equilibration buffer. […] The desalted protein was collected directly into counting tubes containing 10 ml aqueous counting scintillant. Less than two minutes was required to complete the desalting. The amount of ^65Zn bound to desalted APP was determined by counting the collected sample in a beta-counter set to the broadest channel. Counting was determined to be 51% efficient. The values shown are means±SD of n≧3 readings.
FIG. 5 is a graphical representation showing a competition analysis of ^65Zn binding to human brain 130/110 kDa APP. Aliquots of APP were incubated for 30 minutes with ^65Zn as in FIG. 4. The binding of the labelled Zn^2+ to APP was subjected to competition with unlabelled Zn^2+ in the form of the chloride salt. Data shown indicate the competition curves generated at pH 6.4 and 7.4. The binding of Zn^2+ to APP deteriorated at the lower pH (=45% of Bmax, pH 7.4). The values are means±SEM of n≧3 readings. The curves illustrated are typical of three experiments.
FIG. 6 is a graphical representation depicting a Scatchard analysis of ^65Zn binding to human brain 130/110 kDa APP.
Binding analysis was performed as follows: Aliquots of APP (90 ng, =1.1 pmole, assuming the average amino acid formula mass of APP is =80 kDa) were incubated at 20° C. Incubations (50 μl) were performed in 150 mM NaCl, 50 mM Tris-HCl, pH 7.4 in the presence of 10^6 CPM of ^65Zn (175 nM). The incubation solution was then applied to a 1.1 ml bed volume Sephadex G25 (Pharmacia, Uppsala, Sweden) column pre-equilibrated with 150 mM NaCl, 50 mM Tris-HCl, pH 7.4 and allowed to settle before being desalted with 645 μl of the equilibration buffer. […] The deslated protein was collected directly into counting tubes containing 10 ml aqueous counting scintillant (ACSII, Amersham). Less than two minutes was required to complete the desalting. The amount of ^65Zn bound to desalted APP was determined by counting the collected sample in a beta-counter set to the broadest channel. Counting was determined to be 51% efficient. The binding of the labelled Zn^2+ to APP was subjected to competition with unlabelled Zn^2+ and other metal chloride salts.

## [Cl-].[Cl-].[Zn+2] [Zn^2+, ZnCl2]
[1]; 2 μM
  increase in APP released into the media: 50%
[1]; 50 μM
  increase in APP released into the media (peak): 200%
[1]
  cytosolic APP: Smaller increases in cytosolic APP
  membrane associated APP levels: no change in membrane associated APP levels
[2]; at 1 minute
  Zn bound to APP, % of Bmax: 30%
[2]; at 5 minutes
  Zn bound to APP, % of Bmax: 30%
[2]; pH 6.4
  binding of Zn^2+ to APP at the lower pH, % of Bmax at pH 7.4: 45%
[2]; unlabelled metal ion at 20 μM
  ^65Zn label competed off APP (of Bmax): > 97%
